In PMC10384011, “m-Terphenylamines, Acting as Selective COX-1 Inhibitors, Block Microglia Inflammatory Response and Exert Neuroprotective Activity” (Molecules, 2023):

Assays:
ovine COX-1 = molecular target: T1, ovine COX-1 (Ovis aries, UniProt P05979); assay: Cyclooxygenase colorimetric inhibitor screening assay, COX-1; format: biochemical; conditions: for IC50: ovine COX-1, colorimetric kit, triplicate; for IC50 / inhibition at 50 µM: read-out: oCOX-1; for inhibition at 50 µM: % Inhibition at 50 µM (converted);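 as to all read-outs here: COX peroxidase activity read colorimetrically as oxidized TMPD at 590 nm, arachidonic acid as substrate, inhibitors tested at 0.001–50 µM from DMSO stocks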
T1 construct: purchased Cayman Chemicals 701050
T1 sequence (P05979 25-600): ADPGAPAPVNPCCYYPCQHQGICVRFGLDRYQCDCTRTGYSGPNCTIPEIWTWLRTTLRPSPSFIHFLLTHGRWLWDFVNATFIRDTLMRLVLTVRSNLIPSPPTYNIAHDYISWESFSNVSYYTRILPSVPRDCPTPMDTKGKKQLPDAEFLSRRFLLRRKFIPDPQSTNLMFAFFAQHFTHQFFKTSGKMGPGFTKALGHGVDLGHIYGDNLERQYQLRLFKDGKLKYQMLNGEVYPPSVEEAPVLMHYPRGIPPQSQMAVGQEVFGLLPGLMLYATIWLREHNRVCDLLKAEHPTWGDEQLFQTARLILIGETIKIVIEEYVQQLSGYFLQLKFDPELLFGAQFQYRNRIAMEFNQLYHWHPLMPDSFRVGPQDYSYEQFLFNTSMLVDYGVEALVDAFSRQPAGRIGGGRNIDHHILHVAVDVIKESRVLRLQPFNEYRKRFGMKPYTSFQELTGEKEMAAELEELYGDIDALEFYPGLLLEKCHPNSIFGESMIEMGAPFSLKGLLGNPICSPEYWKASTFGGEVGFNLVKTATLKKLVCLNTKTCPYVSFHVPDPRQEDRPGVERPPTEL
Procedure: (§1) Newly synthesized compounds were evaluated for their ability to inhibit ovine COX-1 or human COX-2 enzyme by measuring the extent (%) of enzyme activity inhibition at different concentrations (0.001, 0.01, 0.1, 1, 10, 50 μM). […] The assay kit measures the peroxidase component of COXs that is assayed colorimetrically by monitoring the appearance of oxidized N,N,N′,N′-tetramethyl-p-phenylenediamine (TMPD) a λ = 590 nm. […] Stock solutions of test compounds were dissolved in DMSO.

human COX-2 = molecular target: T2, human COX-2 (Homo sapiens, UniProt P35354); assay: Cyclooxygenase colorimetric inhibitor screening assay, COX-2; format: biochemical; conditions: read-out: hCOX-2; for IC50: human COX-2, colorimetric kit; for inhibition at 50 µM: human COX-2, 50 µM;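 as to all read-outs here: peroxidase activity of COX-2 followed colorimetrically through formation of oxidized TMPD at 590 nm, with arachidonic acid as substrate, compounds tested from 0.001 to 50 µM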
T2 construct: purchased Cayman Chemicals 701050
T2 sequence (P35354 18-604): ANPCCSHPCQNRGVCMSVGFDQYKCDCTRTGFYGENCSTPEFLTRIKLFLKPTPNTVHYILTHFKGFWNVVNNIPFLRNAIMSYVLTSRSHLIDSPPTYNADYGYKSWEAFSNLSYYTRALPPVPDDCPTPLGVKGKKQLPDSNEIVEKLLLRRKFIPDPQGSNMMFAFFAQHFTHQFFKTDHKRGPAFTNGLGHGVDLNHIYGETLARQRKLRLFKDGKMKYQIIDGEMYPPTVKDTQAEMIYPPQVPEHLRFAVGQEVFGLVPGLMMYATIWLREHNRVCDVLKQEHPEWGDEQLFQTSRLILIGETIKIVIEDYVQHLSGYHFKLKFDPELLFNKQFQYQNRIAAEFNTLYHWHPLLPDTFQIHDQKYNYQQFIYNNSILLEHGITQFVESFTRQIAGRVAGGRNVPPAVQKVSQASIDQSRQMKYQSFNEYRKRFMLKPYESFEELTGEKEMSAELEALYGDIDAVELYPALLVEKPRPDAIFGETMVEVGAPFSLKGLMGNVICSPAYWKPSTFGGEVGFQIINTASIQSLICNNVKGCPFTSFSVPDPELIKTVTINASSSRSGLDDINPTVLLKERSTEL
Procedure: as §1

BV2 microglia cells = assay: ROS production (H2DCFDA) in LPS-treated BV2 microglia; format: cell-based; conditions: 3 μM, LPS 1 μg/mL, 24 h
From the text: Activation of toll-like receptors (TLRs), particularly the TLR4 subtype, is closely associated with the production of reactive oxygen and nitrogen species that contribute to neuronal death in the CNS. In this connection, NADPH oxidase enzymes are the main ones responsible for ROS production induced by NF-κB nuclear translocation. For this reason, we decided to assess the ROS levels of BV2 microglia cells treated with LPS and the effect of our compounds under this toxicity protocol. To this end, the compounds, at different concentrations (3 μM of 3a, 3b, and 3d and 10 μM of 3c) were incubated with 1 μg/mL LPS for 24 h. After this period, ROS production was measured with the fluorescent probe H2DCFDA. Treatment with LPS increased by 1.75-fold the amount of ROS compared with control cells.
Cultures were seeded into flasks containing supplemented medium and kept at 37 °C in a humidified atmosphere of 5% CO2 and 95% air. For assays, BV-2 cells were subcultured in 48-well plates at a seeding density of 1 × 10^5 cells per well. Cells were treated with LPS (Sigma-Aldrich, Madrid, Spain) for 24 or 48 h before confluence in RPMI with 1% FBS.
To measure cellular ROS, we used the molecular probe 2′,7′-dichlorodihydrofluorescein diacetate (H2DCFDA). Glial cells were loaded with 5 µM H2DCFDA as it was previously described (Parada et al., 2015). Fluorescence was measured in a fluorescence microplate reader (FLUOstar Galaxy; BMG Labtech, Offenburg, Germany). Wavelengths of excitation and emission were 485 and 520 nm, respectively. The relative pixel intensity was measured in identical regions with (ImageJ 1.52a software, National Institutes of Health, Bethesda, MD, USA).

Row | Molecule | IC50 (ovine COX-1) [µM] | IC50 (human COX-2) [µM] | inhibition at 50 µM (ovine COX-1; ovine COX-1, 50 µM) [%] | inhibition at 50 µM (human COX-2) [%] | melting point [°C] | other results
1 | Cc1ccc(-c2cc(N)c(C(=O)O)c(-c3ccccc3)c2)cc1 [Compound 2b, 6-Amino-2-phenyl-4-(4-tolyl)benzoic acid] |  |  | 46 | 2 |  | 
2 | Nc1cc(-c2ccc(Cl)cc2)cc(-c2ccc(Cl)cc2)c1C(=O)O [Compound 2d, 6-Amino-2,4-di-(4-chlorophenyl)benzoic acid] | > 50 |  |  | 13 | 178 to 179 | 
3 | Nc1cc(-c2ccc(Br)cc2)cc(-c2ccc(Br)cc2)c1C(=O)O [Compound 2f, 6-Amino-2,4-di-(4-bromophenyl)benzoic acid] |  |  | 8 | 12 | 239 to 240 | 
4 | O=C(O)c1c(Nc2ccccc2)cc(-c2ccccc2)cc1-c1ccccc1 [Compound 2g, 6-Phenylamino-2,4-diphenylbenzoic acid] |  |  | 7 | 13 |  | 
5 | Nc1cc(-c2ccc(Cl)cc2)cc(-c2ccc(Cl)cc2)c1 [Compound 3d, 4,4″-Dichloro-5′-amino-m-terphenyl] |  | > 50 | 36 |  |  | ROS production induced by LPS (BV2 microglia cells): failed to decrease the levels of ROS
6 | c1ccc(Nc2cc(-c3ccccc3)cc(-c3ccccc3)c2)cc1 [Compound 3g, 5′-Phenylamino-m-terphenyl] | > 50 | > 50 |  |  |  | 
7 | O=C(Nc1cc(-c2ccccc2)cc(-c2ccccc2)c1)NC1CCCC1 [Compound 4a, 1-([m-Terphenyl]-5′-yl)-3-cyclopentyl urea] | > 50 | > 50 |  |  |  | 
8 | COc1ccc(-c2cc(NC(=O)NC3CCCC3)cc(-c3ccccc3)c2)cc1 [Compound 4e, 1-([4-Methoxy-m-terphenyl]-5′-yl)-3-cyclopentylurea] | > 50 | > 50 |  |  | 208 to 209 | 
9 | O=C(Nc1cc(-c2ccc(Br)cc2)cc(-c2ccc(Br)cc2)c1)NC1CCCC1 [Compound 4f, 1-([4,4″-Dibromo-m-terphenyl]-5′-yl)-3-cyclopentylurea] |  |  | 10 | 30 | 222 to 223 | COX-1 selectivity (in words) (ovine COX-1; ovine COX-1 vs human COX-2): did not show COX-1 selectivity
10 | COc1ccc(-c2noc(CC(=O)O)c2-c2ccc(OC)cc2)cc1 [Mofezolac, mofezolac, reference compound] |  |  | 100 | 42 |  | 

Now from value to molecule, other results behind:

Row | IC50 (ovine COX-1) [µM] | IC50 (human COX-2) [µM] | inhibition at 50 µM (ovine COX-1; ovine COX-1, 50 µM) [%] | inhibition at 50 µM (human COX-2) [%] | melting point [°C] | Molecule | other results
11 | > 50 | > 50 |  |  |  | CCOC(=O)c1c(N)cc(-c2ccccc2)cc1-c1ccccc1 [Compound 1a, ethyl 6-amino-2,4-diphenylbenzoate] | 
12 |  |  | 32 | 3 | 162 to 163 | Nc1cc(-c2ccccc2)cc(-c2ccccc2)c1C(=O)O [Compound 2a, 6-Amino-2,4-diphenylbenzoic acid] | 
13 | > 50 |  |  | 4 | 229 to 230 | Nc1cc(-c2ccc(Cl)cc2)cc(-c2ccccc2)c1C(=O)O [Compound 2c, 6-Amino-2-phenyl-4-(4-chlorophenyl)benzoic acid] | 
14 | > 50 |  |  | 20 |  | COc1ccc(-c2cc(N)c(C(=O)O)c(-c3ccccc3)c2)cc1 [Compound 2e, 6-Amino-2-phenyl-4-(4-methoxyphenyl)benzoic acid] | 
15 | > 50 | > 50 |  |  | 163 to 164 | Nc1cc(-c2ccc(Br)cc2)cc(-c2ccc(Br)cc2)c1 [Compound 3f, 4,4″-Dibromo-5′-amino-m-terphenyl] | 
16 | > 50 | > 50 |  |  | 217 to 218 | Cc1ccc(-c2cc(NC(=O)NC3CCCC3)cc(-c3ccccc3)c2)cc1 [Compound 4b, 1-([4-Methyl-m-terphenyl]-5′-yl)-3-cyclopentyl urea] | 
17 | > 50 | > 50 |  |  | 203 to 204 | O=C(Nc1cc(-c2ccccc2)cc(-c2ccc(Cl)cc2)c1)NC1CCCC1 [Compound 4c, 1-([4-Chloro-m-terphenyl]-5′-yl)-3-cyclopentylurea] | 
18 | > 50 | > 50 |  |  | 239 to 240 | O=C(Nc1cc(-c2ccc(Cl)cc2)cc(-c2ccc(Cl)cc2)c1)NC1CCCC1 [Compound 4d, 1-([4,4″-Dichloro-m-terphenyl]-5′-yl)-3-cyclopentylurea] | 
19 | > 50 | > 50 |  |  |  | CCOC(=O)c1c(NC(=O)NC2CCCCC2)cc(-c2ccccc2)cc1-c1ccc(OC)cc1 [Compound 5, Ethyl 6-(3′-cyclohexylureido)-2-(4-methoxyphenyl)-4-phenylbenzoate] | 
20 |  | > 50 |  |  |  | ethyl 6-amino-2-(4-methoxyphenyl)-2-phenylbenzoate [Compound 1e] | oCOX-1; % Inhibition at 50 µM (ovine COX-1; ovine COX-1, 50 µM): NM (9) %
